Experiments:
Format in all cases: cell-based
[1] = system: S47 cells; assay: Resazurin cytotoxicity screening, S47 cells; conditions: for EC50: S47 cells, 72 hours, resazurin fluorescence, normalized to doxorubicin and DMSO; for Fold-resistant, S47 / Fold-sensitive, S47: S47 versus WT EC50
Procedure: (§1) The screening methods were performed as follows. S47 and wild type cells were plated at a density of 750 cells/well in a total volume of 50 μL in 384 well Greiner microplates. The cells were allowed to attach overnight at 37° C. and then dosed with 50 nL of compound serially diluted in DMSO. Following compound addition, the assay plates were incubated at 37° C. for 72 hours, followed by the addition of 5 μL of […] Resazurin. The plates were incubated at 37° C. for 8-10 hours and then fluorescence was measured using a Perkin Elmer Envision plate reader (excitation at 530-560 nm, emission at 590 nm). Raw fluorescent counts were uploaded into Spotfire and normalized to doxorubicin (positive control) and DMSO (negative control) treated wells (n=12/plate). EC50 values were calculated by applying a logistic regression curve fit and expressed as μM compound that was effective in killing 50% of the cell population at 72 hours.

[2] = system: wild type cells; assay: Resazurin cytotoxicity screening, wild type cells; conditions: 72 hours, resazurin fluorescence, normalized to doxorubicin and DMSO, read-out: WT EC50
Procedure: as §1

[3] = system: S47 tumor cells; assay: Sensitivity of E1A/Ras-transformed S47 tumor cells compared to WT cells; conditions: S47 and WT cells expressing E1A/Ras
Procedure: S47 and WT cells expressing E1A/Ras were analyzed.
A tumorigenic (transformed) version of WT and S47 cells may be created as follows. WT and S47 cells were transfected with two oncogenes (E1A and Ras).

Structure (SMILES): Cc1cn(-c2cc(NC(=O)c3ccc(C)c(Nc4nccc(-c5cccnc5)n4)c3)cc(C(F)(F)F)c2)cn1 [AMN107]
- EC50 [1]: > 10 µM
- Fold-resistant, S47 [1]: 28
- EC50 [2]: 0.353 µM

Structure (SMILES): C[C@@H]1COCCN1c1cc(C2([S@](C)(=N)=O)CC2)nc(-c2cc[nH]c3nccc2-3)n1 [AZD6738]
- EC50 [1]: > 10 µM
- Fold-resistant, S47 [1]: 26
- EC50 [2]: 0.377 µM

Structure (SMILES): N.N.[Cl][Pt][Cl] [Cisplatin, (SP-4-2)-diamminedichloroplatinum(II)]
- Sensitivity of S47 tumor cells compared to WT cells [3]: more sensitive
- EC50 [1]: 0.79 µM
- Fold-resistant, S47 [1]: 2.3
- EC50 [2]: 0.348 µM

Structure (SMILES): COc1cccc2c1C(=O)c1c(O)c3c(c(O)c1C2=O)C[C@@](O)(C(=O)CO)C[C@@H]3O[C@H]1C[C@H](N)[C@H](O)[C@H](C)O1 [Doxorubicin]
- EC50 [1]: 0.292 µM
- Fold-resistant, S47 [1]: 2
- EC50 [2]: 0.146 µM

Structure (SMILES): CS(=O)(=O)N1CCN(Cc2cc3nc(-c4cccc5[nH]ncc45)nc(N4CCOCC4)c3s2)CC1 [GDC0941, 2-(1H-indazol-4-yl)-6-((4-(methylsulfonyl)piperazin-1-yl)methyl)-4-morpholinothieno[3,2-d]pyrimidine]
- EC50 [1]: 0.012 µM
- Fold-sensitive, S47 [1]: 2.33
- EC50 [2]: 0.028 µM

Structure (SMILES): COc1ncc(-c2ccc3nccc(-c4ccnnc4)c3c2)cc1NS(=O)(=O)c1ccc(F)cc1F [GSK2126458, 2,4-difluoro-N-(2-methoxy-5-(4-(pyridazin-4-yl)quinolin-6-yl)pyridin-3-yl)benzenesulfonamide]
- EC50 [1]: 0.00046 µM
- Fold-sensitive, S47 [1]: 3.26
- EC50 [2]: 0.0015 µM

Structure (SMILES): CC(C)n1nc(-c2ccc3oc(N)nc3c2)c2c(N)ncnc21 [INK128, 5-(4-amino-1-isopropyl-1H-pyrazolo[3 ,4-d]pyrimidin-3-yl)benzo[d]oxazol-2-amine]
- EC50 [1]: 0.0095 µM
- Fold-sensitive, S47 [1]: 1.5
- EC50 [2]: 0.0145 µM

Structure (SMILES): Cc1[nH]c2ccccc2c1CCNCc1ccc(/C=C/C(=O)NO)cc1 [LBH589]
- EC50 [1]: 0.0066 µM
- Fold-resistant, S47 [1]: 2
- EC50 [2]: 0.0032 µM

Structure (SMILES): COc1cccc2cc(-c3nc([C@H]4CC[C@H](C(=O)O)CC4)n4ncnc(N)c34)[nH]c12 [OSI027, trans-4-[4-amino-5-(7-methoxy-1H-indol-2-yl)imidazo[5,1-f][1,2,4]triazin-7-yl]cyclohexanecarboxylic acid]
- Sensitivity of S47 tumor cells compared to WT cells [3]: more sensitive
- EC50 [1]: 0.173 µM
- Fold-sensitive, S47 [1]: 4.3
- EC50 [2]: 0.745 µM

Structure (SMILES): CC[C@@]1(O)C(=O)OCc2c1cc1n(c2=O)Cc2cc3ccccc3nc2-1 [camptothecin]
- Sensitivity of S47 tumor cells compared to WT cells [3]: less sensitive

— patent publication US20180282818A1, “Therapeutic Cancer Treatments Based on TP53 Gene Mutations” (The Wistar Institute of Anatomy and Biology, priority 2015, published 2018)
